Test results from patent US8198266B2, “Use of an EGFR antagonist for the treatment of glomerolonephritis” (INSERM (Institut National de la Sante et de la Recherche …, priority 2006, dated 2012).
“Also recorded” adds a separate entry of the source.

Columns and labels:
[1] = test system: anti-GBM nephrotoxic serum-induced crescentic glomerulonephritis (RPGN) in mice; assay: Histopathology and immunohistochemistry (crescentic glomeruli, CD3 positive cells) in accelerated anti-GBM crescentic glomerulonephritis; type: in vivo, mouse
EGFR = biological target: T1, EGFR (Mus musculus, UniProt Q01279); assay: Phosphorylation of EGFR in renal cortex/glomeruli (western blot, immunofluorescence) during experimental RPGN; type: in vivo
T1 construct: Proteins were extracted from kidneys using a lysis buffer; from tissue; host or cells: mouse kidney (renal cortex, glomeruli); wild type and HB-EGF-/- mice on mixed C57BL/6J x 129 background
Procedure: On day 14, mice were sacrified.
For immunofluorescence in mouse tissues, cryostat sections of 4 μm were immediately fixed in acetone, washed in PBS and then incubated with antibodies in a humid incubator. Deposits of mouse IgG in kidney were evaluated using FITC rat anti-mouse IgG (FI2000, Vector) (1:100 dilution, incubation for 1 hour at room temperature).
Western blot analysis: Proteins were extracted from kidneys using a lysis buffer (Phosphosafe extraction buffer, Novagen) and quantified according to Bradford's method. […] Immunoblotting was performed using the rabbit anti phospho-EGFR (Cell Signaling) diluted 1:1,000 or a rabbit anti-EGFR diluted 1:5,000 (Cell Signaling) as control for lane loading. Then, horseradish peroxidase-linked donkey secondary antibody (Amersham Pharmacia Biotech) diluted 1:2,000 was added and revelation was subsequently made using ECL plus kit (Amersham Pharmacia Biotech) on autoradiography film, followed by densitometric analysis.

[2] = test system: anti-GBM nephrotoxic serum-induced crescentic glomerulonephritis (RPGN) in mice; assay: Assessment of ascitis, renal function and albuminuria in accelerated anti-GBM crescentic glomerulonephritis; type: in vivo, mouse
Procedure: Assessment of […], renal function and albuminuria: […] Stage 2 to 4 were associated with clinically evident […] weight gain before sacrifice. Serum and urinary creatinine, and blood urea nitrogen (BUN) were quantified spectrophotometrically using a colorimetric method. Urinary albumin excretion was measured using a specific ELISA assay for quantitative determination of albumin inmouse urine (CellTrend GmbH).

[3] = test system: anti-GBM nephrotoxic serum-induced crescentic glomerulonephritis (RPGN) in mice; assay: Survival in accelerated anti-GBM crescentic glomerulonephritis; settings: AG1478-treated HB-EGF(+/+) mice
Procedure: Briefly, WT and HB-EGF−/− mice received subcutaneous injection with 200 μg normal sheep IgG (100 μl in each flank of normal sheep IgG (Sigma) diluted to 1 mg/ml in a solution of 50% freund complete adjuvent and 50% saline). Six days later (day 1), glomerulonephritis (GN) was induced by intravenous injection of 50 μl sheep anti-glomerular basement membrane (GBM) serum diluted to 7 mg/ml in saline. Serum injection was repeated twice (days 2 and 3), with serum dilution increased to 70 mg/ml. On days 0, 1, 2, 3, 5 and 7, mice received intraperitoneal injection of either AG1478 (LC Laboratories), a pharmacological inhibitor of EGFR tyrosine kinase activity (30 mg.kg-1.day-1 in 100 μl of a saline solution with 1% carboxymethylcellulose (CMC) and 10% DMSO), or 100 μl of saline solution with 1% CMC and 10% DMSO as control. On day 8, mice were sacrified after body weight measurement and 12 hours urines collection with metabolic cages. […] On day 14, mice were sacrified. Blood was obtained from mice by aortic catheterization. Kidneys from each mouse were processed for immunohistochemistry, protein and mRNA analysis, and the remaining half-kidney fixed in 10% neutral-buffered formalin for histological study.

[4] = day 8, AG1478 30 mg/kg i.p., wild type mice, 30 mg/kg
[5] = day 14, erlotinib preventive (d0-14) or curative (d4-14) protocol

T1 sequence (Q01279 25-1210): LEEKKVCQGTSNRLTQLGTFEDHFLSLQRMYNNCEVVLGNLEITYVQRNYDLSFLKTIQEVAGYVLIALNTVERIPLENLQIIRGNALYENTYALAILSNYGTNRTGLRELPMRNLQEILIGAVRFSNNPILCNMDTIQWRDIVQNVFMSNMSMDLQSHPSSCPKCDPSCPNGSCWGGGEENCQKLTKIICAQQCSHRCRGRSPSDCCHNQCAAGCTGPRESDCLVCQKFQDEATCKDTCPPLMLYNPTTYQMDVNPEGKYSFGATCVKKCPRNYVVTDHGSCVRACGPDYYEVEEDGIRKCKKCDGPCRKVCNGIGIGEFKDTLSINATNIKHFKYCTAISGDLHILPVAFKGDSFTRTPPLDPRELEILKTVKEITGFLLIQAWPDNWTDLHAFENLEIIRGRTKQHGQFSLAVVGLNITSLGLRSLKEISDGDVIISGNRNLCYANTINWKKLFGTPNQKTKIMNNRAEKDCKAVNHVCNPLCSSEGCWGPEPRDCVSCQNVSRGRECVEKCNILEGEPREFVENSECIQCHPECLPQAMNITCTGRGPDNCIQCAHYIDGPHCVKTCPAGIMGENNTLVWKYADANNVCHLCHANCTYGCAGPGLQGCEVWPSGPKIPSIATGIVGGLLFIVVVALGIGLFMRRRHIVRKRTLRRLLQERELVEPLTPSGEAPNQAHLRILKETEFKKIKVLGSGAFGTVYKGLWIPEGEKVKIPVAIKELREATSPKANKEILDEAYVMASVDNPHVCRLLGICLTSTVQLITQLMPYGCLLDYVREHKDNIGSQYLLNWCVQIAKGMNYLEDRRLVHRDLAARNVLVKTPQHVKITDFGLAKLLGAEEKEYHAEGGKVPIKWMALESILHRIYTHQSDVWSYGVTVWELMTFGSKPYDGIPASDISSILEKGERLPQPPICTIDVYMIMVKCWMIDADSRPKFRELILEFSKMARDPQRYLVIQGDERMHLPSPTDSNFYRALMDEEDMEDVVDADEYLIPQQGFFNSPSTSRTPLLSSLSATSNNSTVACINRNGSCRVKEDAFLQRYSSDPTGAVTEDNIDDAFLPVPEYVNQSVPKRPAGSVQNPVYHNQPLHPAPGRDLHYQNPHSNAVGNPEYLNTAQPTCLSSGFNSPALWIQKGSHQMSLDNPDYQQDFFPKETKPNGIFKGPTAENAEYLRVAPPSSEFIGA

Structure (SMILES) | crescent formation / renal lesions (in words) [1, 4] | periglomerular and interstitial CD3+ cell infiltrates [1, 4] | % of crescentic glomeruli ([1]; day 8 after induction of RPGN, AG1478 30 mg/kg/day i.p., n=6) | phosphorylation of EGFR (in words) (EGFR; AG1478 i.p. in wild type mice vs vehicle only, day 8) | pEGFR signal in glomeruli (immunofluorescence) (EGFR; day 8 post NTS, AG1478 30 mg/kg/day i.p.) | phosphorylation of EGFR blunted (fold) (EGFR; renal cortex, day 8 post NTS, AG1478 30 mg/kg/day i.p. vs vehicle) | pEFGR/EGFR ratio (EGFR; renal cortex, western blot, day 8 post NTS, AG1478 30 mg/kg/day i.p., wild type mice, n=6) | incidence and severity of asciitis ([2]; day 8, AG1478 30 mg/kg i.p., vs vehicle) | albumin urinary leakage, renal function / renal failure (in words) ([2]; day 8, AG1478 30 mg/kg i.p., 30 mg/kg) | albuminuria ([2]; day 8, AG1478 30 mg/kg/day i.p., n=6) | BUN ([2]; day 8, AG1478 30 mg/kg/day i.p., n=6, in mM) | death within 8 days of RPGN [3] | necrotic glomerular lesions, cellular crescents, tubular proteinaceous casts and diffuse CD3 positive cells infiltrates ([1]; day 14, delayed erlotinib from day 4 to day 14, Masson trichrome staining) | proportion of crescentic glomeruli ([1]; day 14, erlotinib 100 mg/kg/day per gavage, preventive (12 hours prior to anti-GBM serum), n=9) | development of glomerular injury (in words) [1, 5] | blood urea nitrogen ([2]; day 14, erlotinib 100 mg/kg/day per gavage, preventive, n=9) | renal failure / blood urea nitrogen levels (in words) [2, 5]
COc1cc2ncnc(Nc3cccc(Cl)c3)c2cc1OC [AG1478, 4-(3-Chloroanilino)-6,7-dimethoxyquinazoline] | reduces crescent formation; also recorded: dramatically reduced the development of renal lesions | reduces crescent formation and T cells infiltrates; also recorded: absent; also recorded: more effective in preventing cell infiltrate than HB-EGF deficiency | 6.8±1.7% | prevented the phosphorylation of EGFR | faint or no signal was detectable | ~9 fold | 11 % of vehicle only-treated mice | lower incidence and severity of asciitis | prevents albumin urinary leakage and renal failure; also recorded: renal function was preserved | 8.9±2.3 g/mmol creatinine | 6.39±2.0 | no AG1478-treated HB-EGF(+/+) mice died | – | – | – | – | –
C#Cc1cccc(Nc2ncnc3cc(OCCOC)c(OCCOC)cc23)c1.Cl [erlotinib, [6,7-bis(2-methoxyethoxy)-4-quinazolin-4-yl]-(3-ethynylphenyl)amine] | – | – | – | – | – | – | – | – | – | – | – | – | blunted | 25.0±6.9 ° A) | blunted or stopped the development of glomerular injury | 3.8 ± 0.4 mmol/L | prevented renal failure with normal blood urea nitrogen levels
